Measurements published in US10487219B2, “Method and compositions for cleaning cooking range exhaust systems” (NOVAPHARM RESEARCH (AUSTRALIA) PTY LTD, priority 2015, dated 2019).

test: Biocide migration test: biocide in strippable PV Acetate emulsion coating, film coated with cooking oil for 24 hrs, oil tested for presence of biocide; type: physicochemical; details: dry film in situ, oily deposits
Description: Initially biocides were selected for trial on the basis that they would be innocuous in a food preparation area. Many of those initially tested are food grade or similar low toxicity biocides. Biocides were tested by incorporating the biocide in the strippable PV Acetate emulsion coating formulation, coating a film of the coating with cooking oil and leaving it in place for 24 hrs and then testing the oil for presence of Biocide. The leaching of the biocide into the oil is considered a proxy for the ability of the film to prevent microbial degradation of the oily material coated thereon.

Row | Compound | Suitability as oil soluble biocide leaching from the dry film into oils deposited on the film
1 | CCCCOC(=O)c1ccc(O)cc1 [butyl parabens, Butyl Parabens] | satisfactory
2 | OCCOc1ccccc1 [phenoxyethanol, Phenoxyethanol] | ineffective

same assay, conditions: strippable PV Acetate emulsion coating film coated with cooking oil, 24 hrs, oil tested for presence of biocide

Row | Compound | Leaching (migration) of the biocide from the coating into the oil
3 | CCCCOC(=O)c1ccccc1 [butyl benzoate] | passed the above test
4 | CCOC(=O)c1ccccc1 [ethylbenzoate] | passed the above test
5 | COC(=O)c1ccccc1 [methyl benzoate] | passed the above test
6 | CCCOC(=O)c1ccccc1 [propyl benzoate] | passed the above test
